Measured values: patent US7576088B2, “Benzodioxole derivatives” (Hoffman-La Roche Inc., priority 2002, dated 2009)

target: T1, human cannabis CB1 receptor (Homo sapiens, UniProt P21554); assay: Affinity for cannabinoid CB1 receptors, [3H]-CP-55,940 radioligand binding on HEK cell membranes; settings: not given
T1 construct: expressed in transfected cells; host or cells: human embryonic kidney (HEK) cells, Semliki Forest Virus system
Experimental: The affinity of the compounds of the invention for cannabinoid CB1 receptors was determined using membrane preparations of human embryonic kidney (HEK) cells in which the human cannabis CB1 receptor is transiently transfected using the Semliki Forest Virus system in conjunction with [3H]-CP-55,940 as radioligand. After incubation of a freshly prepared cell membrane preparation with the [3H]-ligand, with or without addition of compounds of the invention, separation of bound and free ligand was performed by filtration over glassfiber filters. Radioactivity on the filter was measured by liquid scintillation counting.

T1 sequence (P21554 whole entry): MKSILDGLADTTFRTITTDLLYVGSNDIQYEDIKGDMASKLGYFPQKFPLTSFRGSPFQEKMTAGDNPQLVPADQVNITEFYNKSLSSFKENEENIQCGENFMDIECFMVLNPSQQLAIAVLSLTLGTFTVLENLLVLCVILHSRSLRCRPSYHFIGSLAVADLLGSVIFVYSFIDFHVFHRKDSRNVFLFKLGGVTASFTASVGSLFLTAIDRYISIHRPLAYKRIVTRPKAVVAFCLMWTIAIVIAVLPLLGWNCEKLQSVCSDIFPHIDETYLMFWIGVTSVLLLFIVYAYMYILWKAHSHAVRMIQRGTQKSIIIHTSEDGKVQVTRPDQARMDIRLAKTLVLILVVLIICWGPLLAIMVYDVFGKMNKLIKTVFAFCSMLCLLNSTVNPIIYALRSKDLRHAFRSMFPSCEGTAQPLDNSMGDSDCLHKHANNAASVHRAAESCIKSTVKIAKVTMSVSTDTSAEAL

With `O=C(c1ccc2c(c1)OC(c1ccccc1)(c1ccccc1)O2)N1CCC2(CC1)OCCO2` [Example 46, (1,4-dioxa-8-aza-spiro[4.5]dec-8-yl)-(2,2-diphenyl-benzo[1,3]dioxol-5-yl)-methanone] as the compound, how does the IC50 read?
Its IC50 is < 2 µM.

same assay, conditions: affinity for the CB1 receptor; read-out: IC50

Which IC50 does the source give for `O=C(c1cc2c(cc1F)OC(c1ccccc1F)(c1ccccc1F)O2)N1CC[C@H](O)C1` [Example 271] here?
The IC50 was < 2 µM.

Which IC50 does the source give for `O=C(c1ccc2c(c1F)OC(c1ccccc1)(c1ccccc1)O2)N1CCOCC1` [Example 65, (4-fluoro-2,2-diphenyl-benzo[1,3]dioxol-5-yl)-morpholin-4-yl-methanone] here?
The IC50 was < 2 µM.

For `O=S(=O)(c1cc2c(cc1F)OC1(O2)c2ccccc2CCc2ccccc21)N1CCOCC1` [Example 234], which IC50 is on record?
Its IC50 is < 2 µM.

With `O=C(c1cc2c(cc1F)OC(c1ccc(F)cc1)(c1ccc(F)cc1)O2)N1CCCC1` [Example 164, [6-fluoro-2,2-bis-(4-fluoro-phenyl)-benzo[1,3]dioxol-5-yl]-pyrrolidin-1-yl-methanone] as the compound, how does the IC50 read?
Its IC50 is < 2 µM.

For `O=S(=O)(c1ccc2c(c1)OC(c1ccccc1)(c1ccccc1)O2)N1CCCN(c2ncc(C(F)(F)F)cc2Cl)CC1` [Example 22, 1-(3-chloro-5-trifluoromethyl-pyridin-2-yl)-4-(2,2-diphenyl-benzo[1,3]dioxole-5-sulfonyl)-[1,4]diazepane], which IC50 is on record?
The IC50 was < 2 µM.

For `Fc1ccc(C2=CCN(Cc3ccc4c(c3)OC(c3ccccc3)(c3ccccc3)O4)CC2)cc1` [Example 75, 1-(2,2-diphenyl-benzo[1,3]dioxol-5-yl-methyl)-4-(4-fluoro-phenyl)-1,2,3,6-tetrahydro-pyridine], which IC50 is on record?
Its IC50 is < 2 µM.

For `O=C(c1cc2c(cc1F)OC(c1ccc(F)cc1)(c1ccc(Cl)cc1Cl)O2)N1CCOCC1` (stereo not drawn) [Example 108, [2-(2,4-dichloro-phenyl)-6-fluoro-2-(4-fluoro-phenyl)-benzo[1,3]dioxol-5-yl]-morpholin-4-yl-methanone], which IC50 is on record?
The IC50 was < 2 µM.

With `O=S(=O)(c1ccc2c(c1)OC(c1ccccc1)(c1ccccc1)O2)N1CCc2ccccc2C1` [Example 18, 2-(2,2-diphenyl-benzo[1,3]dioxole-5-sulfonyl)-1,2,3,4-tetrahydro-isoquinoline] as the compound, how does the IC50 read?
The IC50 was < 2 µM.

For `O=S(=O)(NCc1ccccc1)c1ccc2c(c1)OC(c1ccccc1)(c1ccccc1)O2` [Example 20, 2,2-diphenyl-benzo[1,3]dioxole-5-sulfonic acid benzylamide], which IC50 is on record?
Its IC50 is < 2 µM.

Which IC50 does the source give for `O=S(=O)(c1ccc2c(c1)OC(c1ccc(F)cc1)(c1ccc(Cl)cc1Cl)O2)N1CCCCC1` (racemic) [Example 39, 1-[2-(2,4-dichloro-phenyl)-2-(4-fluoro-phenyl)-benzo[1,3]dioxole-5-sulfonyl]-piperidine] here?
Its IC50 is < 2 µM.

Which IC50 does the source give for `O=S(=O)(c1ccc2c(c1)OC(c1ccccc1)(c1ccccc1)O2)N1CCN(c2ccc(Cl)cc2Cl)CC1` [Example 4, 1-(2,4-dichloro-phenyl)-4-(2,2-diphenyl-benzo[1,3]dioxole-5-sulfonyl)-piperazine] here?
The IC50 was < 2 µM.

tested on: not given; assay: not given; settings: doses of 5, 10 and 20 mg daily; cited from earlier work

Which “body weight compared to placebo” value does the source give for `Cc1c(C(=O)NN2CCCCC2)nn(-c2ccc(Cl)cc2Cl)c1-c1ccc(Cl)cc1` [SR 141716, Rimonabant] here?
Its value is “significantly reduced body weight”.

tested on: not given; assay: not given; settings: not given

Which melting point does the source give for `O=C(c1cc2c(cc1F)OC(c1ccccc1Cl)(c1ccccc1Cl)O2)N1CCOCC1` here?
The melting point was 98 °C.

With `O=C(c1ccc2c(c1)OC(c1cccc(Cl)c1)(c1cccc(Cl)c1)O2)N1CCCCC1` as the compound, how does the melting point read?
The melting point was 54 °C.
